Data published in patent US6677316B2, “Adenosine derivatives and methods of administration” (SmithKline Beecham Corporation, priority 1998, dated 2004).

Key:
[1] = target: T1, human adenosine A1 receptor (Homo sapiens, UniProt P30542); test: Reporter gene assay (CRE/SPAP) in CHO cells, agonist potency relative to NECA, adenosine A1 receptor; format: cell-based; set-up: key: equipotent concentration ratio, NECA = 1; details: ECR = equipotent concentration ratio relative to NECA = 1, inhibition of forskolin-stimulated SPAP production
T1 construct: expressed in transfected cells; host or cells: Chinese hamster ovary (CHO) cells with CRE/SPAP/HYG reporter elements
T1 sequence (P30542 1-326): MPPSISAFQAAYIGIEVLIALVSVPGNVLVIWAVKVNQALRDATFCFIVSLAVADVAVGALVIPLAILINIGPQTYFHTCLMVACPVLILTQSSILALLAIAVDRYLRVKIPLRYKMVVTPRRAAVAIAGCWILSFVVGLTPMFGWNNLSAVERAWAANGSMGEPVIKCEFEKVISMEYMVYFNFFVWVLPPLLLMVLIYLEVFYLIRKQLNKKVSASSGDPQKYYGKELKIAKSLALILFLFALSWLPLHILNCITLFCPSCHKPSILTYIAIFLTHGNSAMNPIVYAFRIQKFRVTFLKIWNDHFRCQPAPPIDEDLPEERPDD
Protocol: (§1) Reporter Gene Experiments
(§2) Agonist activity was measured in Chinese hamster ovary (CHO) cells containing the CRE/SPAP/HYG (CRE=cyclic AMP response element; HYG=hygromycin resistance; SPAP=secreted placental alkaline phosphatase) reporter gene elements, which upon stimulation of cAMP levels produced SPAP. A cell line was used, which was stably transfected with either the human adenosine A1 receptor or the human adenosine A3 receptor in addition to the above elements. Cells were plated out in 96-well plates in culture medium and incubated at 37° C. for 1 hour. For measurement of potency, agonists were added to the appropriate wells at a concentration range of approximately 10^−10- 10^−5M. 15Min later, cAMP levels were stimulated by addition of a maximal concentration of forskolin. All cells were then incubated for a further 5 hours at 37° C., and cooled to room temperature, after which a substrate for the phosphatase (para-nitrophenol phosphate, pNPP), which is converted by SPAP to a coloured reagent) was then added and the 96-well -plates were read in a plate reader. From these readings, the concentration-dependence of the inhibition by the agonist for forskolin-stimulated SPAP production can be calculated. One of the agonists tested on each 96-well plate was the standard non-selective agonist, N-ethylcarboxamidoadenosine (NECA), and the potency of all test agonists is expressed relative to that of the NECA standard.
(§3) (ECR=equipotent concentration ratio relative to NECA=1)

[2] = target: T2, human adenosine A3 receptor (Homo sapiens, UniProt P0DMS8); test: Reporter gene assay (CRE/SPAP) in CHO cells, agonist potency relative to NECA, adenosine A3 receptor; format: cell-based; set-up: key: equipotent concentration ratio, NECA = 1; details: ECR = equipotent concentration ratio relative to NECA = 1, inhibition of forskolin-stimulated SPAP production
T2 construct: expressed in transfected cells; host or cells: Chinese hamster ovary (CHO) cells with CRE/SPAP/HYG reporter elements
T2 sequence (P0DMS8 1-318): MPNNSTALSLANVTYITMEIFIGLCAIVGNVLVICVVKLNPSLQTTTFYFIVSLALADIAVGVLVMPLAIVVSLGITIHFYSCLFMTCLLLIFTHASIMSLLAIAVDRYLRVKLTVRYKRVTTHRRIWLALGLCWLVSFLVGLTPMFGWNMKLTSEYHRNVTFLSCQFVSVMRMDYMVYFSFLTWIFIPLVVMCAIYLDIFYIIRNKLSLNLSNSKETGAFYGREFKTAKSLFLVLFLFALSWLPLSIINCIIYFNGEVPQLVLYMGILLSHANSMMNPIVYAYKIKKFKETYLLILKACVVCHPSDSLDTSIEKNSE
Protocol: as §1, §2, §3

| SMILES | Adenosine A1 receptor ECR* [1] | Adenosine A3 receptor ECR* [2] |
| --- | --- | --- |
| O[C@@H]1[C@H](O)[C@@H](c2nnc(C(F)(F)F)o2)O[C@H]1n1cnc2c(N[C@H]3CCC[C@@H]3O)ncnc21 [Example 179, (2R,3R,4S,5S)-2-(6-{[(1S,2S)-2-hydroxy-cyclopentyl]-amino}-9H-purin-9-yl)-5-[5-(trifluoromethyl)-1,3,4-oxadiazol-2-yl]-tetrahydrofuran-3,4-diol] | 12.6 |  |
| O[C@@H]1[C@H](O)[C@@H](c2nc(C3CC3)no2)O[C@H]1n1cnc2c(NC3CCOCC3)ncnc21 [Example 22, (2S,3S,4 R,5R)-2-(3-Cyclopropyl-[1,2,4]oxadiazol-5-yl)-5-[6-(tetrahydro-pyran4-ylamino)-purin-9-yl]-tetrahydro-furan-3,4-diol] | 8.75 | 423 |
| COCc1noc([C@H]2O[C@@H](n3cnc4c(NC5CCCC5)ncnc43)[C@H](O)[C@@H]2O)n1 [Example 129, (2R,3R,4S,5S)-2-[6-(cyclopentylamino)-9H-purin-9-yl]-5-[3-(methoxymethyl)-1,2,4-oxadiazol-5-yl]tetrahydrofuran-3,4-diol] | 15.5 | >199 |
| CC(C)(C)c1noc([C@H]2O[C@@H](n3cnc4c(NCC5CC5)ncnc43)[C@H](O)[C@@H]2O)n1 [Example 44, (2S,3S,4 R,5R)-2-[3-(tert-butyl)-1,2,4-oxadiazol-5-yl]-5-{6-[(cyclopropylmethyl)amino]-9H-purin-9-yl}tetrahydrofuran-3,4-diol] | 7.68 | 165.54 |
| CCOC(=O)N1CCC(Nc2ncnc3c2ncn3[C@@H]2O[C@H](c3nnc(C4CC4)o3)[C@@H](O)[C@H]2O)CC1 [Example 12, 4-{9-[5S-(5-Cyclopropyl-[1,3,4]oxadiazol-2-yl)-3R,4S-dihydroxy-tetrahydro-furan-2R-yl]-9H-purin-6-ylamino}-piperidine-1-carboxylic acid ethyl ester] | 2.28 | 254 |
| CCc1cnc([C@H]2O[C@@H](n3cnc4c(NC5CCOCC5)ncnc43)[C@H](O)[C@@H]2O)o1 [Example 16, (2S,3S,4R,5R)-2-(5-Ethyl-oxazol-2-yl)-5-[6-(tetrahydro-pyran-4-ylamino)-purin-9-yl]-tetrahydro-furan-3,4-diol] | 9.6 | 201 |
| O[C@@H]1[C@H](O)[C@@H](c2nnc(C3CC3)o2)O[C@H]1n1cnc2c(NC3CCOCC3)ncnc21 [Example 108, (2S,3S,4R,5R)-2-(5-cyclopropyl-1,3,4-oxadiazol-2-yl)-5-[6-(tetrahydro-2H-pyran-4-ylamino)-9H-purin-9-yl]tetrahydrofuran-3,4-diol] | 1.52 | 254 |
| CCNS(=O)(=O)CCNc1ncnc2c1ncn2[C@@H]1O[C@H](c2cc(C(C)(C)C)no2)[C@@H](O)[C@H]1O [Example 177, 2-[(9-{(2R,3R,4S,5S)-5-[3-(tert-butyl)isoxazol-5-yl]-3,4-dihydroxy-tetrahydrofuran-2-yl}-9H-purin-6-yl)amino]-N-ethylethane-sulfonamide] | 2.01 | 122 |
| CC(C)(C)c1nnc([C@H]2O[C@@H](n3cnc4c(NC5CCOCC5)ncnc43)[C@H](O)[C@@H]2O)o1 [Example 3, (2S,3S,4R,5R)-2-(5-tert-Butyl-[1,3,4]oxadiazol-2-yl)-5-[6-(tetrahydro-pyran-4-ylamino)-purin-9-yl]-tetrahydro-furan-3,4-diol] | 4.16 | 152 |
| CC(C)c1nnc([C@H]2O[C@@H](n3cnc4c(NC5CCOCC5)ncnc43)[C@H](O)[C@@H]2O)[nH]1 [Example 141, (2R,3S,4R,5R)-2-(5-isopropyl-4H-1,2,4-triazol-3-yl)-5-[6-(tetrahydro-2H-pyran-4-ylamino)-9H-purin-9-yl]tetrahydrofuran-3,4-diol] | 12.08 | 228 |
| Cc1cccc(NS(=O)(=O)CCNc2ncnc3c2ncn3[C@@H]2O[C@H](c3nnc(C(C)(C)C)o3)[C@@H](O)[C@H]2O)c1 [Example 126, 2-[(9-{(2R,3R,4S,5S)-5-[5-(tert-butyl)-1,3,4-oxadiazol-2-yl]-3,4-dihydroxytetrahydrofuran-2-yl}-9H-purin-6-yl)amino]-N-(3-methylphenyl)ethanesulfonamide] | 13.9 |  |
| Cc1nnc([C@H]2O[C@@H](n3cnc4c(Nc5ccc(Cl)cc5F)ncnc43)[C@H](O)[C@@H]2O)o1 [Example 181] | 8.57 |  |
| O[C@@H]1[C@H](O)[C@@H](c2cc(C3CC3)no2)O[C@H]1n1cnc2c(Nc3ccc(Cl)cc3F)ncnc21 [Example 182, (2R,3R,4S,5S)-2-[6-(4-chloro-2-fluoroanilino)-9H-purin-9-yl]-5-(3-cyclopropyl-isoxazol-5-yl)-tetrahydrofuran-3,4-diol] | 3.48 |  |

Other lines, results leading:

| Adenosine A1 receptor ECR* [1] | Adenosine A3 receptor ECR* [2] | SMILES |
| --- | --- | --- |
| 7.36 | 165.54 | CC(C)CNc1ncnc2c1ncn2[C@@H]1O[C@H](c2nc(C(C)(C)C)no2)[C@@H](O)[C@H]1O [Example 45, (2S,3S,4R,5R)-2-[3-(tert-butyl)-1,2,4-oxadiazol-5-yl]-5-[6-(isobutylamino)-9H-purin-9-yl]tetrahydrofuran-3,4-diol] |
| 24.9 |  | CCCc1cc([C@H]2O[C@@H](n3cnc4c(Nc5ccc(Cl)cc5F)ncnc43)[C@H](O)[C@@H]2O)on1 [Example 145, (2R,3R,4S,5S)-2-[6-(4-chloro-2-fluoroanilino)-9H-purin-9-yl]-5-(3-propylisoxazol-5-yl)tetrahydrofuran-3,4-diol] |
| 2.8 |  | Cc1cc([C@H]2O[C@@H](n3cnc4c(Nc5ccc(Cl)cc5F)ncnc43)[C@H](O)[C@@H]2O)on1 [Example 144, (2R,3R,4S,5S)-2-[6-(4-chloro-2-fluoroanilino)-9H-purin-9-yl]-5-(3-methylisoxazol-5-yl)tetrahydrofuran-3,4-diol] |
| 5.8 | 1066.71 | CC(C)(C)c1nnc([C@H]2O[C@@H](n3cnc4c(Nc5ccc(Cl)cc5F)ncnc43)[C@H](O)[C@@H]2O)o1 [Example 14, (2S,3S,4R,5R)-2-(5-tert-Butyl-[1,3,4]oxadiazol-2-yl)-5-[6-(4-chloro-2-fluoro-phenylamino)-purin-9-yl]-tetrahydro-furan-3,4-diol] |
| 9.8 | 827.66 | CC(C)(C)c1nnc([C@H]2O[C@@H](n3cnc4c(Nc5ccc(Cl)cc5F)ncnc43)[C@H](O)[C@@H]2O)[nH]1 [Example 67, (2R,3S,4 R,5 R)-2-[5-(tert-butyl)-4H-1,2,4-triazol-3-yl]-5-[6-(4-chloro-2-fluoroanilino)-9H-purin-9-yl]tetrahydrofuran-3,4-diol] |
| 4.3 |  | O[C@@H]1[C@H](O)[C@@H](c2cc(Br)no2)O[C@H]1n1cnc2c(Nc3ccc(Cl)cc3F)ncnc21 [Example 164, (2S,3S,4R,5R)-2-(3-bromoisoxazol-5-yl)-5-[6-(4-chloro-2-fluoroanilino)-9H-purin-9-yl]tetrahydrofuran-3,4-diol] |
| 1.31 |  | CCOC(=O)N1CCC(Nc2ncnc3c2ncn3[C@@H]2O[C@H](c3cc(CC)no3)[C@@H](O)[C@H]2O)CC1 [Example 138, ethyl 4-({9-[(2R,3R,4S,5S)-5-(3-ethylisoxazol-5-yl)-3,4-dihydroxytetrahydrofuran-2-yl]-9H-purin-6-yl}amino)piperidine-1-carboxylate] |
| 0.48 |  | CCc1cc([C@H]2O[C@@H](n3cnc4c(NC5CCOCC5)ncnc43)[C@H](O)[C@@H]2O)on1 [Example 135, (2S,3S,4R,5R)-2-(3-ethylisoxazol-5-yl)-5-[6-(tetrahydro-2H-pyran-4-ylamino)-9H-purin-9-yl]tetrahydrofuran-3,4-diol] |
| 1.95 |  | CCc1cc([C@H]2O[C@@H](n3cnc4c(N[C@H]5CCC[C@@H]5O)ncnc43)[C@H](O)[C@@H]2O)on1 [Example 136, (2S,3S,4R,5R)-2-(3-ethylisoxazol-5-yl)-5-(6-{[(1S,2S)-2-hydroxycyclopentyl]amino}-9H-purin-9-yl)tetrahydrofuran-3,4-diol] |
